Source: ChEMBL document CHEMBL1134921 (Bioorg Med Chem Lett, 2002)
pKi: −log10 of the molar value.

Legend:
[1] = species on record: Rattus norvegicus; assay: Effective dose for Antinociceptive activity was determined in rat using drug discrimination assay; assay type: functional
[2] = molecular target: Neuronal nicotinic acetylcholine receptor; assay: Binding affinity against Nicotinic acetylcholine receptor using [3H](-)-nicotine radioligand; assay type: protein-complex assay
[3] = species on record: Mus musculus; assay: Effective dose for Antinociceptive activity was determined in mice using Tail -Flick Assay; assay type: functional
[4] = test system: Mus musculus; assay: Effective dose for Antinociceptive activity expressed as Spontaneous activity was determined in mice antagonized by 1 mg/Kg of Mecamylamine.; assay type: functional
[5] = test system: Mus musculus; assay: Effective dose for Antinociceptive activity expressed as Spontaneous activity was determined in mice antagonized by 1 mg/Kg of Mecamylamine: The symbol > signifies that no effect was produced at that dose; assay type: functional
[6] = species on record: Rattus norvegicus; assay: Effective dose for Antinociceptive activity was determined in rat using drug discrimination assay: The symbol > signifies that no effect was produced at that dose; assay type: functional
[7] = test system: Mus musculus; assay: Compound was tested to antagonize the antinociceptive actions of 2.5 mg/kg of (-)nicotine as measured in the tail-flick assay in mice; assay type: functional
[8] = species on record: Mus musculus; assay: Effective dose for Antinociceptive activity was determined in mice using Tail -Flick Assay: The symbol > signifies that no effect was produced at that dose; assay type: functional
[9] = Rattus norvegicus, read-out: ED50
[10] = Mus musculus, Tail, read-out: ED50

Row | Compound | ED50 [1, 9] | pKi [2] | ED50 [3, 10] | ED50 ([4]; Mus musculus, read-out: ED50) | ED50 [8] | further results
1 | CCc1ccc(C2CCCN2C)cn1 (single isomer, unassigned; (-)) | 1.1 µmol/kg | 8.25 | 2.1 µmol/kg | 1.4 µmol/kg |  | 
2 | CN1CCC[C@H]1c1cccnc1 (racemic) [NICOTINE] | 0.6 µmol/kg |  | 9.9 µmol/kg | 4.9 µmol/kg |  | 
3 | Cc1ccc(C2CCCN2C)cn1 (racemic) | 0.4 µmol/kg | 8.74 | 3.5 µmol/kg | 1 µmol/kg |  | 
4 | CN1CCC[C@H]1c1cccnc1 [NICOTINE] |  |  |  |  |  | ED50 [1]: 0.6 µM/kg; ED50 [3]: 7.4 µM/kg; ED50 [4]: 3.1 µM/kg
5 | CCCc1ccc(C2CCCN2C)cn1 (single isomer, unassigned; (-)) |  | 7.66 |  |  |  | ED50 [5]: > 35 µmol/kg; ED50 [6]: >50 µM/kg; AD50 [7]: 4.9 µM/kg
6 | CCCc1ccc(C2CCCN2C)cn1 (racemic) |  | 7.60 |  |  | > 70 µmol/kg | ED50 [6]: >20 µM/kg
7 | CCCCc1ccc(C2CCCN2C)cn1 (single isomer, unassigned; (-)) |  | 7.68 |  |  | > 50 µmol/kg | AD50 [7]: 9.2 µM/kg
8 | CCCCCc1ccc(C2CCCN2C)cn1 (racemic) |  | 7.14 |  |  | > 50 µmol/kg | ED50 [5]: > 50 µmol/kg
